In ChEMBL document CHEMBL1128423, “Synthesis and evaluation of 6,11-ethanohexahydrobenzo[b]quinolizidines: a new class of noncompetitive N-methyl-D-aspartate antagonists” (J Med Chem, 1995):

Target: Glutamate NMDA receptor
Assay: Displacement of [3H]TCP from NMDA receptor of rat brain membranes
Format: cell membranes, Membrane

| Ki [nM] | SMILES |
| --- | --- |
| 12 | Nc1ccc2c(c1)C1C3CCCC3C2N2CCCCC12 (configuration not stated) |
| 134 | c1ccc2c(c1)C1C3CCCCC3C2N2CCCCC12 (configuration not stated) |
| 2.3 | Oc1ccc2c(c1)C1C3CCCC3C2N2CCCCC12 (configuration not stated) |
| 23 | Oc1ccc2c(c1)C1C3CCCC3C2C2CCCCN21 (configuration not stated) |
| 600 | c1ccc2c(c1)C1C3OCCC3C2N2CCCCC12 (configuration not stated) |
| 41 | Brc1ccc2c(c1)C1C3CCCC3C2N2CCCCC12 (configuration not stated) |
| 2.3 | Oc1cccc2c1C1C3CCCC3C2N2CCCCC12 (configuration not stated) |
| 20 | Fc1ccc2c(c1)C1C3CCCC3C2N2CCCCC12 (configuration not stated) |

| SMILES | Ki [nM] |
| --- | --- |
| c1ccc2c(c1)C1C3CCCC3C2N2CCCCC12 (configuration not stated) | 15 |
| CC12c3ccccc3C(C3CCCC31)N1CCCCC12 (configuration not stated) | 46 |
| c1ccc2c(c1)C1CCC2N2CCCCC12 (configuration not stated) | 240 |
| c1ccc2c(c1)CC1CCCCN1C2 (configuration not stated) | 10000 |
